Experimental data from patent US20070061899A1, “Transgenic mammal with constitutive, tissue-specific cytokine expression and use as a cancer model” (THE TRUSTEES OF COLUMBIA UNIVERSITY IN THE CITY OF NEW YORK, priority 2005, published 2007).

B1: IL-1β: proinflammatory pleiotropic cytokine, infused or injected into mice (protein, UniProt P10749 118-269, looked up)
Interleukin-1 beta: VPIRQLHYRLRDEQQKSLVLSDPYELKALHLNGQNINQQVIFSMSFVQGEPSNDKIPVALGLKGKNLYLSCVMKDGTPTLQLESVDPKQYPKKKMEKRFVFNKIEVKSKVEFESAEFPNWYISTSQAEHKPVFLGNNSGQDIIDFTMESVSS

Tests used:
[1] = test system: tumor development induced by IL-1; conditions: release of 25 ng per day from microencapsulated cells, mice; cited from earlier work
fibrosarcoma = conditions: control mice, systemic treatments; cited from earlier work
[2] = test system: IL-1β mice and C57BL/6J mice infected with Helicobacter felis; test: IL-1RA treatment of bone marrow transplanted, Helicobacter felis infected mice; type: in vivo, mouse; conditions: hIL-1RA by osmotic minipump, 100 mg/kg/day for 30 days; eight weeks after H. felis infection
Excerpt: Bone marrow transplantation, and Helicobacter felis infection and IL-RA treatment. Bone marrow was isolated from the femurs and tibias of 6-8 week old C57BL/6-TgN [ACThEGFP] (GFP) mice. Total bone marrow was washed, triturated using a 20 gauge needle and passed through a 40 sum nylon mesh cell strainer (Becton Dickson) to produce a single cell suspension in PBS. Recipient IL-β mice and C57BL/6J mice were irradiated with 900 rads from a cesium 137-gamma cell irradiator, reconstituted with 3×10^6 donor marrow cells via a single tail vein injection, and used for experiments after 2 weeks of recovery. The overall level of engraftment was 60-80% as assessed by analysis of β-galactosidase or GFP in peripheral leukocytes. Non-transplanted IL-β mice and C57BL/6 mice served as controls for all injury models. Helicobacter felis (strain 49179) was obtained from the […] (Rockville, Md.), grown as recommended and bacteria enumerated as previously described (Houghton 2004). Two weeks after transplantation, mice were infected by oral gavage with 1×10^7 colony forming units every other day for 3 days. […]
Single cell preparation and FACS analysis. […] All single cell suspensions were stained with FITC-labeled anti-CD34, PE-labeled […] as well as Cy5-labeled anti-CD3 and anti-B220 antibodies (Pharmingen) and analyzed using a FACScan™ flow cytometer. […]

B16 melanoma = conditions: murine B16 model, cited from earlier work
[3] = test system: C57BL/6J mice and Balb/c mice; test: Continuous infusion of IL-1β into mice (preliminary experiment); type: in vivo, mouse; conditions: continuous infusion (13 days)

Molecule	angiogenesis [1]	tumor development [1]	fibrosarcoma growth (fibrosarcoma)	development of gastritis [2]	mobilization of hematopoietic stem cells circulation and stomach tissues [2]	metastases (B16 melanoma)	survival rates (B16 melanoma)	gastric atrophy [3]	liver metastasis (B16 melanoma; intrasplenic injection)
IL-1RA: IL-1 receptor antagonist; binds IL-1 receptor type I without transmitting an activation signal	reduced	inhibited	inhibited	reduces	reduces	reduced	increased	–	–
B1	–	–	–	–	–	–	–	caused gastric atrophy	increased
